# Experimental data taken from patent US12606541B2, “PPARg modulators and methods of use” (Eisai R&D Management Co., Ltd., priority 2020, dated 2026).
# Read-outs that look alike come from different tables or passages of the source.
# Key:
# UM-UC-9 engineered cells = assay: Cell proliferation / short-term viability assay, CellTiter-Glo 144 h; format: cell-based, human; details: read-out: CTGlo 144 h UMUC9.5, G150
# How it was run: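 Viability read by CellTiter-Glo 2.0 luminescence at day 7 versus DMSO-vehicle wells and a T0 plate measured on day 0. Cells: UM-UC-9 engineered assay-ready stocks, 500 cells/well in high-glucose DMEM with 10% FBS, 37° C, 5% CO2.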
# His6-TEV-PPARγ-(234-505) = biological target: T1, His6-TEV-PPARγ-(234-505) (Homo sapiens, UniProt P37231); assay: TR-FRET Assay to Measure Co-R Peptide Recruitment to PPARγ; format: biochemical; details: Co-R peptide (SMRT-ID2) recruitment; top final concentration 20 μM; read-out: TR-FRET i-Ag; AC50
# T1 construct: The His6-TEV-PPARγ-(234-505) protein for assay was expressed and purified; TEV cleavage site (N); made in house
# T1 sequence (P37231 234-505): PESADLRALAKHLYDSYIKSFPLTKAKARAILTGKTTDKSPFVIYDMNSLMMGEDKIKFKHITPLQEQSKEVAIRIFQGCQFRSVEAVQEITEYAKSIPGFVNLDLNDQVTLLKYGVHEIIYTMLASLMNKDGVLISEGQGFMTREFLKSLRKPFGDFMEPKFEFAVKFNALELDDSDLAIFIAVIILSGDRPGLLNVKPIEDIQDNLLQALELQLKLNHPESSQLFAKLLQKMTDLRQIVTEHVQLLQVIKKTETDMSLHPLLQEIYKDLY
# How it was run: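 Corepressor recruitment is measured by adding terbium-labeled anti-His antibody and FITC SMRT-ID2 peptide, at 5 and 200 nM final, after a 20-minute room-temperature protein–compound incubation. After one further hour, signal is converted to percent response between DMSO and 500 nM T0070907 wells.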
Compound,AC50 (His6-TEV-PPARγ-(234-505)) [nM],"IC50 (UM-UC-9 engineered cells; Homo sapiens, UM-UC-9, 144 h) [nM]",IC50 (UM-UC-9 engineered cells) [nM]
"COc1cc(-c2cc(C(=O)N3[C@@H]4CC[C@H]3C[C@H](C(=O)NCc3cccc(Cl)c3)C4)n[nH]2)c(F)cn1 [Example 160-A, (1R,3s,5S)—N-(3-chlorobenzyl)-8-(5-(5-fluoro-2-methoxypyridin-4-yl)-1H-pyrazole-3-carbonyl)-8-azabicyclo[3.2.1]octane-3-carboxamide]",11.5,38.2,
"COc1cc(-c2cc(C(=O)N3CCC(F)(C(=O)NCc4cccc(Cl)c4)CC3)n[nH]2)c(Cl)cn1 [Example 174, 1-(5-(5-chloro-2-methoxypyridin-4-yl)-1H-pyrazole-3-carbonyl)-N-(3-chlorobenzyl)-4-fluoropiperidine-4-carboxamide]",125,407,
"CCOC1(C(F)(F)F)CCC(NC(=O)[C@H]2CCN(C(=O)c3cc(-c4cc(C)ncn4)[nH]n3)C3(CC3)C2)CC1 (mixture of isomers) [Example 308-A, (S)—N-(4-ethoxy-4-(trifluoromethyl)cyclohexyl)-4-(5-(6-methylpyrimidin-4-yl)-1H-pyrazole-3-carbonyl)-4-azaspiro[2.5]octane-7-carboxamide]",2.8,5.6,
"COc1cc(-c2cc(C(=O)N3CC[C@H](C(=O)NCc4nccn4C(F)(F)F)CC34CC4)[nH]n2)c(F)cn1 [Example 519, (S)-4-(3-(5-fluoro-2-methoxypyridin-4-yl)-1H-pyrazole-5-carbonyl)-N-((1-(trifluoromethyl)-H-imidazol-2-yl)methy)-4-azaspiro[2.5]octane-7-carboxamide]",4.3,19.1,
"COc1cc(-c2cc(C(=O)N3CC[C@H](C(=O)Nc4cnn5cc(C(C)=O)ccc45)CC34CC4)n[nH]2)c(F)cn1 [Example 494, (S)—N-(6-acetylpyrazolo[1,5-a]pyridin-3-yl)-4-(5-(5-fluoro-2-methoxypyridin-4-yl)-1H-pyrazole-3-carbonyl)-4-azaspiro[2.5]octane-7-carboxamide]",6.7,80.8,
"COc1cc(-c2cc(C(=O)N3CCC(C(=O)NCc4cnc5c(cnn5C)c4)CC3)n[nH]2)c(Cl)cn1 [Example 232, 1-(5-(5-chloro-2-methoxypyridin-4-yl)-1H-pyrazole-3-carbonyl)-N-((1-methyl-1H-pyrazolo[3,4-b]pyridin-5-yl)methyl)piperidine-4-carboxamide]",516,2150,
"COc1cc(-c2cc(C(=O)N3CC[C@H](C(=O)NCc4cn5c(n4)COCC5)CC34CC4)n[nH]2)c(F)cn1 [Example 371, (S)—N-((5,6-dihydro-8H-imidazo[2,1-c][1,4]oxazin-2-yl)methyl)-4-(5-(5-fluoro-2-methoxypyridin-4-yl)-1H-pyrazole-3-carbonyl)-4-azaspiro[2.5]octane-7-carboxamide]",36.4,338,
"CCOC1(C(F)(F)F)CCC(NC(=O)[C@@H]2CCN(C(=O)c3cc(-c4cc(C)ncn4)[nH]n3)C3(CC3)C2)CC1 (mixture of isomers) [Example 308-B, (R)—N-(4-ethoxy-4-(trifluoromethyl)cyclohexyl)-4-(5-(6-methylpyrimidin-4-yl)-1H-pyrazole-3-carbonyl)-4-azaspiro[2.5]octane-7-carboxamide]",548,1010,
"COc1cc(-c2cc(C(=O)N3CC[C@H](C(=O)NCc4cccc(Cl)c4)CC3(C)C)n[nH]2)c(Cl)cn1 (single isomer, unassigned) [Example 255-A]",49.6,141,
"COc1cc(-c2cc(C(=O)N3CCC(C(=O)NCc4ccc(C(F)(F)F)cn4)CC3)n[nH]2)c(Cl)cn1 [Example 139, 1-(5-(5-chloro-2-methoxypyridin-4-yl)-1H-pyrazole-3-carbonyl)-N-((5-(trifluoromethyl)pyridin-2-yl)methyl)piperidine-4-carboxamide]",336,1790,
"COc1cc(-c2cc(C(=O)N3CCC(C(=O)NC4CCCc5cnccc54)CC3)n[nH]2)c(Cl)cn1 (racemic) [Example 191, 1-(5-(5-chloro-2-methoxypyridin-4-yl)-1H-pyrazole-3-carbonyl)-N-(5,6,7,8-tetrahydroisoquinolin-5-yl)piperidine-4-carboxamide]",838,2010,
"COc1cc(-c2cc(C(=O)N3CCC(C(=O)NC4CCC(C)CC4)CC3)n[nH]2)c(Cl)cn1 (mixture of isomers) [Example 101, 1-(5-(5-chloro-2-methoxypyridin-4-yl)-1H-pyrazole-3-carbonyl)-N-((1s,4s)-4-methylcyclohexyl)piperidine-4-carboxamide and 1-(5-(5-chloro-2-methoxypyridin-4-yl)-1H-pyrazole-3-carbonyl)-N-((1r,4r)-4-methylcyclohexyl)piperidine-4-carboxamide]",29.4,,305
"COc1cc(-c2cc(C(=O)N3CC[C@H](C(=O)NCC45COC(C)(C4)C5)CC34CC4)n[nH]2)c(F)cn1 [Example 343, (S)-4-(5-(5-fluoro-2-methoxypyridin-4-yl)-1H-pyrazole-3-carbonyl)-N-((1-methyl-2-oxabicyclo[2.1.1]hexan-4-yl)methyl)-4-azaspiro[2.5]octane-7-carboxamide]",20,93,
"COc1cc(-c2cc(C(=O)N3CC[C@@H](C(=O)NCc4cccc(Cl)c4)C[C@H]3C)n[nH]2)c(Cl)cn1 [Example 273, (2R,4R)-1-(5-(5-chloro-2-methoxypyridin-4-yl)-1H-pyrazole-3-carbonyl)-N-(3-chlorobenzyl)-2-methylpiperidine-4-carboxamide]",26.7,213,
"COc1cc(-c2cc(C(=O)N3CC[C@H](C(=O)NCc4c(C(F)(F)F)nn(C)c4Cl)CC34CC4)[nH]n2)c(F)cn1 [Example 526, (S)—N-((5-chloro-1-methyl-3-(trifluoromethyl)-1H-pyrazol-4-yl)methyl)-4-(3-(5-fluoro-2-methoxypyridin-4-yl)-1H-pyrazole-5-carbonyl)-4-azaspiro[2.5]octane-7-carboxamide]",3.7,7.1,
"(R)-4-(5-(5-fluoro-2-methoxy-3-methylpyridin-4-yl)-1H-pyrazole-3-carbonyl)-N-((1r,4R)-4-hydroxy-4-(trifluoromethyl)cyclohexyl)-4-azaspiro[2.5]octane-7-carboxamide and (S)-4-(5-(5-fluoro-2-methoxy-3-methylpyridin-4-yl)-1H-pyrazole-3-carbonyl)-N-((1r,4S)-4-hydroxy-4-(trifluoromethyl)cyclohexyl)-4-azaspiro[2.5]octane-7-carboxamide [Example 493]",12.6,,88.6

# More lines, main results first:
AC50 (His6-TEV-PPARγ-(234-505)) [nM],Compound,"IC50 (UM-UC-9 engineered cells; Homo sapiens, UM-UC-9, 144 h) [nM]",IC50 (UM-UC-9 engineered cells) [nM]
109,"COc1cc(-c2cc(C(=O)N3CC[C@H](C(=O)NCC45CC(O)(C4)C5)CC34CC4)n[nH]2)c(F)cn1 [Example 336, (S)-4-(5-(5-fluoro-2-methoxypyridin-4-yl)-1H-pyrazole-3-carbonyl)-N-((3-hydroxybicyclo[1.1.1]pentan-1-yl)methyl)-4-azaspiro[2.5]octane-7-carboxamide]",1050,
452,"COc1cc(-c2cc(C(=O)N3CC[C@@H](C(=O)N[C@H]4CC[C@@](OCCN(C)C)(C(F)(F)F)CC4)CC34CC4)n[nH]2)c(F)cn1 [Example 329-B, (R)—N-((1r,4R)-4-(2-(dimethylamino)ethoxy)-4-(trifluoromethyl)cyclohexyl)-4-(5-(5-fluoro-2-methoxypyridin-4-yl)-1H-pyrazole-3-carbonyl)-4-azaspiro[2.5]octane-7-carboxamide]",1650,
399,"COc1cc(-c2cc(C(=O)N3CC[C@H](C(=O)NC45CC(C4)N(CC(C)(C)F)C5)CC34CC4)n[nH]2)c(F)cn1 [Example 442, (S)-4-(5-(5-fluoro-2-methoxypyridin-4-yl)-1H-pyrazole-3-carbonyl)-N-(2-(2-fluoro-2-methylpropyl)-2-azabicyclo[2.1.1]hexan-4-yl)-4-azaspiro[2.5]octane-7-carboxamide]",583,
324,"COc1cc(-c2cc(C(=O)N3CC[C@H](C(=O)NC4CCN(C5COC56CNC6)C4)CC34CC4)n[nH]2)c(F)cn1 (single isomer, unassigned) [Example 461-B]",,> 10000
13.1,"COc1cc(-c2cc(C(=O)N3CC[C@H](C(=O)NC4CCN(CC(F)(F)CO)C4)CC34CC4)n[nH]2)c(F)cn1 (single isomer, unassigned) [Example 459-B]",,83.4
7.8,"COc1cc(-c2cc(C(=O)N3CC[C@H](C(=O)NC4CCC(C(F)(F)F)C(O)C4)CC34CC4)n[nH]2)c(F)cn1 (single isomer, unassigned) [Example 501-A]",,21.4
54.7,"COc1cc(-c2cc(C(=O)N3CC[C@H](C(=O)N[C@H]4CN(c5ccc(C)nc5)C[C@H]4F)CC34CC4)n[nH]2)c(F)cn1 [Example 428, (S)—N-((3S,4R)-4-fluoro-1-(6-methylpyridin-3-yl)pyrrolidin-3-yl)-4-(5-(5-fluoro-2-methoxypyridin-4-yl)-1H-pyrazole-3-carbonyl)-4-azaspiro[2.5]octane-7-carboxamide]",141,
